Laboratory results as given in patent publication US12344600B2, “c-Myc mRNA translation modulators and uses thereof in the treatment of cancer” (Anima Biotech Inc., priority 2022, dated 2025).

System: c-Myc
Test: c-Myc immunofluorescence assay
Assay type: cell-based, human
Settings: A549 cells, 24 hours, anti-c-Myc immunofluorescence
Procedure, shortened: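 Read-out is imaged c-Myc immunofluorescence, nucleus-segmented, in A549 lung carcinoma cells exposed to compound dose series for 24 h after 48 h growth. Fixation 4% paraformaldehyde, Triton permeabilization, antibody staining at room temperature; EC50 from logistic fit of signal versus concentration.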

Compound | Myc Efficacy (−LogEC50)
COc1ccc(-c2noc(N3CCC(C(=O)NCC4CCN(C[C@H]5CCCCN5)C4)CC3)n2)cc1 (stereo partly drawn) [Compound 415, 1-(3-(4-methoxyphenyl)-1,2,4-oxadiazol-5-yl)-N-((1-(((R)-piperidin-2-yl)methyl)pyrrolidin-3-yl)methyl)piperidine-4-carboxamide] | + (+ >3 and <5)
COc1ccc(-c2noc(N3CCC(C(=O)NCC4CCN(C(C)C5CCOCC5)C4)CC3)n2)cc1 (stereo not shown) [Compound 416, 1-(3-(4-methoxyphenyl)-1,2,4-oxadiazol-5-yl)-N-((1-(1-(tetrahydro-2H-pyran-4-yl)ethyl)pyrrolidin-3-yl)methyl)piperidine-4-carboxamide] | + (+ >3 and <5)
COc1ccc(-c2noc(N3CCN(C(=O)NCc4cc5ccccc5[nH]4)CC3)n2)cc1 [Compound 417, N-((1H-indol-2-yl)methyl)-4-(3-(4-methoxyphenyl)-1,2,4-oxadiazol-5-yl)piperazine-1-carboxamide] | ++ (++ ≥5 and <6)
COc1ccc(-c2noc(N3CCC(C(=O)NCc4cc5cccnc5[nH]4)CC3)n2)cc1 [Compound 418, N-((1H-pyrrolo[2,3-b]pyridin-2-yl)methyl)-1-(3-(4-methoxyphenyl)-1,2,4-oxadiazol-5-yl)piperidine-4-carboxamide] | + (+ >3 and <5)
COc1ccc(-c2noc(N3CCC(C(=O)NCc4nc5ccccc5[nH]4)CC3)n2)cc1 [Compound 419, N-((1H-benzo[d]imidazol-2-yl)methyl)-1-(3-(4-methoxyphenyl)-1,2,4-oxadiazol-5-yl)piperidine-4-carboxamide] | ++ (++ ≥5 and <6)
COc1ccc(-c2noc(N3CCC(C(=O)NCc4nc5ccccc5o4)CC3)n2)cc1 [Compound 420, N-(benzo[d]oxazol-2-ylmethyl)-1-(3-(4-methoxyphenyl)-1,2,4-oxadiazol-5-yl)piperidine-4-carboxamide] | + (+ >3 and <5)
COc1ccc(-c2noc(N3CCN(C(=O)NCC4CCN(CC5CCCCC5)C4)CC3)n2)cc1 (stereo not shown) [Compound 421, N-((1-(cyclohexylmethyl)pyrrolidin-3-yl)methyl)-4-(3-(4-methoxyphenyl)-1,2,4-oxadiazol-5-yl)piperazine-1-carboxamide] | +++ (+++ ≥6)
COc1ccc(-c2noc(N3CCC(C(=O)NCC4CCN(C[C@H]5CCCN(C)C5)C4)CC3)n2)cc1 (stereo partly drawn) [Compound 422, 1-(3-(4-methoxyphenyl)-1,2,4-oxadiazol-5-yl)-N-((1-(((S)-1-methylpiperidin-3-yl)methyl)pyrrolidin-3-yl)methyl)piperidine-4-carboxamide] | ++ (++ ≥5 and <6)
O=C(NCCCN1CCC(Oc2ccccc2)CC1)N1CCN(c2nc(-c3ccc(OC(F)(F)F)cc3)no2)CC1 [Compound 428, N-(3-(4-phenoxypiperidin-1-yl)propyl)-4-(3-(4-(trifluoromethoxy)phenyl)-1,2,4-oxadiazol-5-yl)piperazine-1-carboxamide] | +++ (+++ ≥6)
O=C(NCCCN1CCC(Cc2ccccc2F)CC1)N1CCN(c2nc(-c3ccc(OC(F)(F)F)cc3)no2)CC1 [Compound 429, N-(3-(4-(2-fluorobenzyl)piperidin-1-yl)propyl)-4-(3-(4-(trifluoromethoxy)phenyl)-1,2,4-oxadiazol-5-yl)piperazine-1-carboxamide] | +++ (+++ ≥6)
O=C(NCCCN1CCC(Cc2ccccn2)CC1)N1CCN(c2nc(-c3ccc(F)cc3)no2)CC1 [Compound 430, 4-(3-(4-fluorophenyl)-1,2,4-oxadiazol-5-yl)-N-(3-(4-(pyridin-2-ylmethyl)piperidin-1-yl)propyl)piperazine-1-carboxamide] | +++ (+++ ≥6)
COc1ccc(-c2noc(N3CCC(C(=O)NC[C@H]4CCN(CC5CCN(C)CC5)C4)CC3)n2)cc1 [Compound 433, (R)-1-(3-(4-methoxyphenyl)-1,2,4-oxadiazol-5-yl)-N-((1-((1-methylpiperidin-4-yl)methyl)pyrrolidin-3-yl)methyl)piperidine-4-carboxamide] | + (+ >3 and <5)
COc1ccc(-c2noc(N3CCC(C(=O)NC[C@@H]4CCN(CC5CCN(C)CC5)C4)CC3)n2)cc1 [Compound 434, (S)-1-(3-(4-methoxyphenyl)-1,2,4-oxadiazol-5-yl)-N-((1-((1-methylpiperidin-4-yl)methyl)pyrrolidin-3-yl)methyl)piperidine-4-carboxamide] | + (+ >3 and <5)
O=C(NCCCN1CCC(Cc2ccccn2)CC1)C1CCN(c2nc(-c3ccc(OC(F)(F)F)cc3)no2)CC1 [Compound 435, N-(3-(4-(pyridin-2-ylmethyl)piperidin-1-yl)propyl)-1-(3-(4-(trifluoromethoxy)phenyl)-1,2,4-oxadiazol-5-yl)piperidine-4-carboxamide] | +++ (+++ ≥6)
O=C(NCCCN1CCC(Cc2ccccn2)CC1)N1CCN(c2nc(-c3ccc(OC(F)(F)F)cc3)no2)CC1 [Compound 436, N-(3-(4-(pyridin-2-ylmethyl)piperidin-1-yl)propyl)-4-(3-(4-(trifluoromethoxy)phenyl)-1,2,4-oxadiazol-5-yl)piperazine-1-carboxamide] | +++ (+++ ≥6)
O=C(NCCCN1CCC(Cc2ccccc2F)CC1)N1CCN(c2nc(-c3ccc(OC(F)F)cc3)no2)CC1 [Compound 438, 4-(3-(4-(difluoromethoxy)phenyl)-1,2,4-oxadiazol-5-yl)-N-(3-(4-(2-fluorobenzyl)piperidin-1-yl)propyl)piperazine-1-carboxamide] | +++ (+++ ≥6)
O=C(NCC1(CN2CCC(Cc3ccccn3)CC2)CC1)N1CCN(c2nc(-c3ccc(OC(F)(F)F)cc3)no2)CC1 [Compound 450, N-((1-((4-(pyridin-2-ylmethyl)piperidin-1-yl)methyl)cyclopropyl)methyl)-4-(3-(4-(trifluoromethoxy)phenyl)-1,2,4-oxadiazol-5-yl)piperazine-1-carboxamide] | ++ (++ ≥5 and <6)
O=C(NCCCN1CCC(Cc2ccccn2)CC1)C1CCN(c2nc(-c3ccc(OC(F)F)cc3)no2)CC1 [Compound 453, 1-(3-(4-(difluoromethoxy)phenyl)-1,2,4-oxadiazol-5-yl)-N-(3-(4-(pyridin-2-ylmethyl)piperidin-1-yl)propyl)piperidine-4-carboxamide] | +++ (+++ ≥6)
O=C(NCCCN1CCC(Cc2ccccn2)CC1)N1CCN(c2nc(-c3ccc(Cl)cc3)no2)CC1 [Compound 458, 4-(3-(4-chlorophenyl)-1,2,4-oxadiazol-5-yl)-N-(3-(4-(pyridin-2-ylmethyl)piperidin-1-yl)propyl)piperazine-1-carboxamide] | +++ (+++ ≥6)
O=C(NCCCN1CCC(Cc2ccccn2)CC1)N1CCN(c2nc(-c3ccc(C(F)(F)F)cc3)no2)CC1 [Compound 459, N-(3-(4-(pyridin-2-ylmethyl)piperidin-1-yl)propyl)-4-(3-(4-(trifluoromethyl)phenyl)-1,2,4-oxadiazol-5-yl)piperazine-1-carboxamide] | +++ (+++ ≥6)
O=C(NCCCN1CCC(Cc2ccccn2)CC1)N1CCN(c2nc(-c3ccc(C(F)F)cc3)no2)CC1 [Compound 460, 4-(3-(4-(difluoromethyl)phenyl)-1,2,4-oxadiazol-5-yl)-N-(3-(4-(pyridin-2-ylmethyl)piperidin-1-yl)propyl)piperazine-1-carboxamide] | +++ (+++ ≥6)
Cc1ccc(CN2CCC(CNC(=O)N3CCN(c4nc(-c5ccc(OCCO)cc5)no4)CC3)C2)cc1 (stereo not shown) [Compound 462, 4-(3-(4-(2-hydroxyethoxy)phenyl)-1,2,4-oxadiazol-5-yl)-N-((1-(4-methylbenzyl)pyrrolidin-3-yl)methyl)piperazine-1-carboxamide] | ++ (++ ≥5 and <6)
Cc1ccc(CN2CCC(CNC(=O)C3CCN(c4nc(-c5ccc(OCCO)cc5)no4)CC3)C2)cc1 (stereo not shown) [Compound 463, 1-(3-(4-(2-hydroxyethoxy)phenyl)-1,2,4-oxadiazol-5-yl)-N-((1-(4-methylbenzyl)pyrrolidin-3-yl)methyl)piperidine-4-carboxamide] | + (+ >3 and <5)
COc1ccc(-c2noc(N3CCC(C(=O)NCC4CCN(C[C@@H]5CCCN(C)C5)C4)CC3)n2)cc1 (stereo partly drawn) [Compound 464, 1-(3-(4-methoxyphenyl)-1,2,4-oxadiazol-5-yl)-N-((1-(((R)-1-methylpiperidin-3-yl)methyl)pyrrolidin-3-yl)methyl)piperidine-4-carboxamide] | + (+ >3 and <5)
COc1ccc(-c2noc(N3CCC(C(=O)NC[C@H]4CCN(C[C@H]5CCCN(C)C5)C4)CC3)n2)cc1 [Compound 465, 1-(3-(4-methoxyphenyl)-1,2,4-oxadiazol-5-yl)-N-(((R)-1-(((S)-1-methylpiperidin-3-yl)methyl)pyrrolidin-3-yl)methyl)piperidine-4-carboxamide] | + (+ >3 and <5)
COc1ccc(-c2noc(N3CCC(C(=O)NC[C@@H]4CCN(C[C@H]5CCCN(C)C5)C4)CC3)n2)cc1 [Compound 466, 1-(3-(4-methoxyphenyl)-1,2,4-oxadiazol-5-yl)-N-(((S)-1-(((S)-1-methylpiperidin-3-yl)methyl)pyrrolidin-3-yl)methyl)piperidine-4-carboxamide] | + (+ >3 and <5)
CN1CCC[C@H](CN2CCC(CNC(=O)C3CCN(c4nc(-c5ccc(C#N)cc5)no4)CC3)C2)C1 (stereo partly drawn) [Compound 467, 1-(3-(4-cyanophenyl)-1,2,4-oxadiazol-5-yl)-N-((1-(((S)-1-methylpiperidin-3-yl)methyl)pyrrolidin-3-yl)methyl)piperidine-4-carboxamide] | + (+ >3 and <5)
CN1CCC[C@H](CN2CCC(CNC(=O)C3CCN(c4nc(-c5ccc(Cl)cc5)no4)CC3)C2)C1 (stereo partly drawn) [Compound 468, 1-(3-(4-chlorophenyl)-1,2,4-oxadiazol-5-yl)-N-((1-(((S)-1-methylpiperidin-3-yl)methyl)pyrrolidin-3-yl)methyl)piperidine-4-carboxamide] | ++ (++ ≥5 and <6)
